Data reported in patent US20250034614A1, “PERSISTER CONTROL BY LEVERAGING DORMANCY ASSOCIATED REDUCTION OF ANTIBIOTIC EFFLUX” (Syracuse University, priority 2021, published 2025).
Like-named read-outs stand apart in the source and are kept apart here.

Tests used:
[1] = tested on: E. coli HM22 normal and persister cells; details: for intracellular accumulation, persister cells relative to normal cells: treated at 100 μg/mL, reporter bioassay
[2] = tested on: E. coli HM22 persister cells; format: cell-based, Escherichia coli; details: for persister cells killed: 1 h in PBS, relative to untreated
[3] = tested on: E. coli HM22 normal cells; assay: Killing of normal (exponential phase) cells, CFU by drop plate; format: cell-based, Escherichia coli; details: for normal cells killed: 100 μg/mL, 1 h in PBS
[4] = tested on: E. coli HM22 persister cells; assay: Concurrent treatment with ampicillin in LB compared with ampicillin alone; format: cell-based, Escherichia coli; details: concurrent 100 μg/mL ampicillin and 100 μg/mL test antibiotic
From the text: E. coli HM22 was used as the model strain in this test because it contains the hipA7 allele that leads to high-level persistence.

[5] = tested on: E. coli HM22 persister cells; assay: LIVE/DEAD staining of persister cells during treatment and wake-up; format: cell-based, Escherichia coli; details: 100 μg/mL treated, washed
Experimental: . The present invention thus hypothesized that the killing effects took place during persister wake-up when the external antibiotic was withdrawn (after the treated cells were plated on antibiotic-free agar plates in this test). […] . […] .
Treated and untreated samples were washed once with PBS (pH 7.4). Cells were then immediately labeled with LIVE/DEAD BacLight bacterial viability kit (Life Technologies Inc., Carlsbad, CA) with a final concentration of 7.5 μM SYTO9 and 30 μM propidium iodide. After 15 min of staining, the cells were pelleted to remove the staining solution, re-suspended in PBS and vortexed briefly. Labeled cells were then imaged on microscope slides using an Axio Imager M1 fluorescence microscope (Axio Imager M1 fluorescence microscope, Carl Zeiss Inc., Berlin, Germany) with an Orca-Flash 4.0 LT camera (Hamamatsu Photonics, Hamamatsu City, Japan). At least 5 random spots were imaged for each sample. The mean gray value intensity was used to calculate the mean intensity generated from each channel (green and red). Each condition was tested with three biological replicates and 5 images were randomly taken from each sample.

[6] = tested on: E. coli HM22 normal cells; details: 100 μM CCCP 10 min, then 100 μg/mL minocycline 1 h
From the text: Carbonyl cyanide m-chlorophenylhydrazone (CCCP) was used to depotentiate the membrane of E. coli normal cells and thus, mimic the change in membrane potential of persister cells. CCCP dissipates the PMF by allowing protons to leak across the membrane and thus inactivate efflux pumps. […] An overnight culture of E. coli HM22 was sub-cultured in LB medium supplemented with DPA with a starting OD600 of 0.05 until OD600 reached 0.3-0.45. The mid-exponential culture was collected by centrifugation at a speed of 13,000 rpm for 3 min at room temperature. […] Each experimental condition was tested with three biological replicates.

[7] = tested on: E. coli JW4364 (ΔacrA mutant); assay: Killing of normal cells of efflux mutant ΔacrA; details: 100 μg/mL
Experimental: (§1) The mid-exponential phase cultures were collected by centrifugation at 13,000 rpm for 3 min at room temperature. The amount of cells used for each treatment was adjusted to OD600 of 0.5 in 500 μL. They were then washed with PBS (pH 7.4) three times. […] Relative viability was normalized by the untreated population. Each experimental condition was tested with five biological repeats.

[8] = tested on: E. coli JW5536 (ΔacrB mutant); assay: Killing of normal cells of efflux mutant ΔacrB; details: 100 μg/mL
Experimental: as §1

[9] = tested on: E. coli JW5503 (ΔtolC mutant); assay: Killing of normal cells of efflux mutant ΔtolC; details: 100 μg/mL
Experimental: as §1

E. coli HM22 = assay: IC50 of killing, individual treatments vs co-treatment; format: cell-based; details: Escherichia coli, read-out: IC50 (concentration required to kill 50% of the population)
AcrAB-TolC mutants = assay: Killing of efflux mutants compared with wild-type (in words); format: cell-based, Escherichia coli; details: normal cells of ΔacrA, ΔacrB, ΔtolC
purified 70S ribosome = details: read-out: IC50 (concentration of the antibiotic needed to inhibit 50% of the purified 70S ribosome); cited from earlier work
[10] = Validation of chloroform extraction (partition coefficient); details: concentration in chloroform phase over aqueous phase
Experimental: To validate if chloroform is effective in extracting the antibiotics after cell lysis, a validation test was performed. Briefly, 100 μL of antibiotic solution was mixed with 100 μL chloroform in a microcentrifuge tube by vortexing. Then the solution was centrifuged for 5 min at 5,000×g. […] Each phase was collected separately and evaporated overnight in a desiccator. […] The samples were then transferred to a 96-well plate where absorbance readings were measured using an Epoch 2 Microplate Spectrophotometer (BioTek, Winooski, VT, USA). […] The concentrations were then calculated by comparing with a standard curve of absorbance with known concentrations of corresponding antibiotic.

[11] = tested on: E. coli HM22 persister cells; assay: Growth and CFU of treated persister cells during wake-up in LB
Experimental: At each designated time point, 1 mL of the cell culture was collected, washed with PBS, and centrifuged at a speed of 13,000 rpm for 3 min. Treated persister cells and untreated controls were washed and resuspended with LB medium supplemented with DPA, and incubated at 37° C. with shaking at 200 rpm. At each designated time point, samples were collected to quantify intracellular antibiotic concentration as described above and to determine growth by measuring OD600.

[12] = after treatment at 100 μg/mL for 1 h

| SMILES | intracellular concentration in normal cells [1, 12] [pg/mL] | intracellular concentration in persister cells [1, 12] [µg/mL] | persister cells killed ([2]; 100 μg/mL) [%] | normal cells killed [3] | intracellular concentration in normal cells ([1]; after treatment at 100 μg/mL) [pg/mL] | intracellular concentration in persister cells ([1]; after treatment at 100 μg/mL) [µg/mL] | intracellular accumulation, persister cells relative to normal cells [1] [times] | persister cells killed ([2]; 30 μg/mL) [%] | persister cells killed ([2]; 50 μg/mL) [%] | additional killing compared to 100 μg/mL ampicillin alone [4] [%] | IC50 (E. coli HM22) [µg/mL] | other results |
| --- | --- | --- | --- | --- | --- | --- | --- | --- | --- | --- | --- | --- |
| CN(C)[C@@H]1C(O)=C(C(N)=O)C(=O)[C@@]2(O)C(O)=C3C(=O)c4c(O)cccc4[C@@](C)(O)[C@H]3C[C@@H]12 [tetracycline] | 5.5 ± 0.1 | 1.6e-06 ± 8e-07 |  |  |  |  |  |  |  |  |  |  |
| CO[C@H]1/C=C/O[C@@]2(C)Oc3c(C)c([O-])c4c(O)c(cc(O)c4c3C2=O)NC(=O)/C(C)=C\C=C\[C@H](C)[C@H](O)[C@@H](C)[C@@H](O)[C@@H](C)[C@H](OC(C)=O)[C@@H]1C.[Na+] [rifamycin SV] |  |  | 75.0±5.12 | did not kill | 4.3e+06 ± 900000 | 14.0 ± 4.5 | 3.2 |  |  |  |  |  |
| CN(C)c1ccc(O)c2c1C[C@H]1C[C@H]3[C@H](N(C)C)C(O)=C(C(N)=O)C(=O)[C@@]3(O)C(O)=C1C2=O [minocycline] | 10.4 ± 2.2 | 2.64e-05 ± 3.5e-06 | 70.8±5.9 |  |  | 26.9 ± 0.7 |  | 47.8±5.3 | 59.0±6.0 | 68 |  | red/total fluorescence of treated persister cells ([5]; 0 min after adding LB): 20.2±3.3%; red/total fluorescence of treated persister cells ([5]; 30 min incubation with added LB): 37.9±3.0%; intracellular concentration in persister cells after wake-up ([1]; 4 h after washing the cells and adding LB medium): 26.8 ± 3.2 pg/mL; normal cells killed after CCCP pretreatment [6]: 95.9±2.5%; normal cells of ΔacrA killed [7]: 98.6±0.3%; normal cells of ΔacrB killed [8]: 99.9±0.01%; normal cells of ΔtolC killed [9]: 99.7±0.03% |
| CC1(C)S[C@@H]2[C@H](NC(=O)[C@H](N)c3ccccc3)C(=O)N2[C@H]1C(=O)O [ampicillin] |  |  |  |  |  |  |  |  |  |  | 1 |  |
| CN(C)[C@@H]1C(O)=C(C(N)=O)C(=O)[C@@]2(O)C(O)=C3C(=O)c4c(O)c(NC(=O)CN5CCCC5)cc(F)c4C[C@H]3C[C@@H]12 [eravacycline] |  |  | 99.9±0.03 | 63.5±15.8% | 2.42e+07 ± 1.7e+06 | 92.1 ± 4.4 | 3.8 | 50.9±7.7 | 98.2±0.5 | 99.9 | 4.8 | killing of persister cells in logs ([2]; 100 μg/mL): 3 log; killing of normal cells (in words) ([3]; concentrations below 100 μg/mL (0-50 μg/mL)): no significant killing; killing of efflux mutants compared to the wild-type strain (in words) (AcrAB-TolC mutants): more killing; IC50 (purified 70S ribosome): 0.2 ± 0.1 µM; Partition Coefficient [10]: 3.0 ± 0.3; regrowth of treated persister cells after removal of extracellular antibiotic and adding LB (in words) ([11]; OD600 / growth): unable to resume growth; decrease of CFU of treated persister cells after removal of extracellular antibiotic and addition of nutrient ([11]; over 8 hours): 97.1±0.9% |
